Measured values published in publication PMC6063448, “Antimicrobial activity of linear lipopeptides derived from BP100 towards plant pathogens” (PLoS ONE, 2018).

Key:
[1] = system: Penicillium expansum EPS26; assay: MIC, antifungal growth inhibition in microtiter plates (PDB); assay type: cell-based; details: Pe, 22°C, seven days, OD 600 nm, lowest concentration with no growth, given as interval of tested concentrations, three replicates, experiment repeated twice
Description: (§1) The following plant pathogenic fungal strains were used: Penicillium expansum EPS26 (Institut de Tecnologia Agroalimentària, Universitat de Girona, Spain) and Fusarium oxysporum f. sp. lycopersici FOL 3 race 2 (ATCC 201829, American Type Culture Collection,Virginia, EEUU). Strains were cultured on potato dextrose agar (PDA) plates (Difco). Conidia from P. expansum and microconidia from F. oxysporum were obtained from 5–7 day-old agar Potato Dextrose (PDA) cultures after growth at 25°C. Inoculum was prepared by scraping spore material from culture surfaces with a cotton swab and resuspending it in distilled water containing 0.5‰ of tween 80. The suspensions were filtered through Miracloth (Merk, Millipore) and the concentration of conidia was determined using a hemacytometer and adjusted to 10^4 conidia mL^-1 for F. oxysporum and to 10^3 conidia mL^-1 for P. expansum.
(§2) Lyophilized peptides were solubilized in sterile Milli-Q water to a final concentration of 1 mM and filter sterilized through a 0.22-μm pore filter. […] For antibacterial activity 20 μL of each dilution were mixed in a microtiter plate well with 20 μL of the corresponding suspension of the bacterial indicator, 160 μL of Trypticase Soy Broth (TSB) (BioMèrieux, France) to a total volume of 200 μL. For antifungal activity 20 μL of each stock solution were mixed in a microtiter plate well with 80 μL of the corresponding suspension of the fungal pathogen and 100 μL of double concentrated Potato Dextrose Broth (PDB) to a total volume of 200 μL containing 0.003% w/v of chloramphenicol to prevent bacterial contamination.
(§3) Three replicates for each combination of strain, compound and concentration were used. Microbial growth was determined by optical density measurement at 600 nm (Bioscreen C, Labsystem, Helsinki, Finland). For antibacterial activity microplates were incubated at 25°C with 20 s shaking before hourly absorbance measurement for 48 h. For antifungal activity microplates were incubated at 22°C with 1 min shaking before absorbance measurement that were done every two hours during seven days. The experiment was repeated twice. The MIC was taken as the lowest compound concentration with no growth at the end of the experiment.

[2] = system: Fusarium oxysporum f. sp. lycopersici FOL 3 race 2; assay: as above; assay type: cell-based; details: Fo, 22°C, seven days, OD 600 nm, lowest concentration with no growth, given as interval of tested concentrations, three replicates, experiment repeated twice
Description: as §1, §2, §3

[3] = system: Pseudomonas syringae pv. syringae EPS94; assay: MIC, growth inhibition in microtiter plates (TSB); assay type: cell-based; details: Pss, 25°C, 48 h, OD 600 nm, lowest concentration with no growth, given as interval of tested concentrations, three replicates, experiment repeated twice
Text: (§4) The following plant pathogenic bacterial strains were used: Erwinia amylovora PMV6076 (Institut National de la Recherche Agronomique, Angers, France), Pseudomonas syringae pv. syringae EPS94 (Institut de Tecnologia Agroalimentària, Universitat de Girona, Spain), Xanthomonas axonopodis pv. vesicatoria 2133–2, Pseudomonas syringae pv. actinidiae Psa3700.1.1, Xanthomonas fragariae Xf349-9A (Instituto Valenciano de Investigaciones Agrarias, Valencia, Spain), and Xanthomonas arboricola pv. pruni CFBP5563 (Collection Française de Bactéries associées aux Plantes, Angers, France). All bacteria except for X. fragariae were stored in Luria Bertani (LB) broth supplemented with glycerol (20%) and maintained at -80°C. For X. fragariae, Medium B [46] was used instead of LB. E. amylovora, X. arboricola pv. pruni, P. syringae pv. syringae and P. syringae pv. actinidiae were scrapped from the agar media after growing for 24 h at 25°C, and X. axonopodis pv. vesicatoria and X. fragariae after growing for 48 h at 25°C. The cell material was suspended in sterile water to obtain a suspension of 10^8 CFU mL^-1.
as §2, §3

[4] = system: Erwinia amylovora PMV6076; assay: MIC, growth inhibition in microtiter plates (TSB); assay type: cell-based; details: Ea, 25°C, 48 h, OD 600 nm, lowest concentration with no growth, given as interval of tested concentrations, three replicates, experiment repeated twice
Text: as §4, §2, §3

[5] = system: Xanthomonas arboricola pv. pruni CFBP5563; assay: MIC, growth inhibition in microtiter plates (TSB); assay type: cell-based; details: Xap, 25°C, 48 h, OD 600 nm, lowest concentration with no growth, given as interval of tested concentrations, three replicates, experiment repeated twice
Text: as §4, §2, §3

[6] = system: Xanthomonas axonopodis pv. vesicatoria 2133–2; assay: MIC, growth inhibition in microtiter plates (TSB); assay type: cell-based; details: Xav, 25°C, 48 h, OD 600 nm, lowest concentration with no growth, given as interval of tested concentrations, three replicates, experiment repeated twice
Text: as §4, §2, §3

[7] = system: Pseudomonas syringae pv. actinidiae Psa3700.1.1; assay: MIC, growth inhibition in microtiter plates (TSB); assay type: cell-based; details: Psa, 25°C, 48 h, OD 600 nm, lowest concentration with no growth, given as interval of tested concentrations, three replicates, experiment repeated twice
Text: as §4, §2, §3

[8] = system: Xanthomonas fragariae Xf349-9A; assay: MIC, growth inhibition in microtiter plates (TSB); assay type: cell-based; details: Xf, 25°C, 48 h, OD 600 nm, lowest concentration with no growth, given as interval of tested concentrations, three replicates, experiment repeated twice
Text: as §4, §2, §3

[9] = system: defense-related genes in tomato plants; assay: Induction of defense gene expression of tomato plants (RT-qPCR); assay type: in vivo, tomato cv. Rio Grande; details: tomato leaves sprayed, 24 h; peptides and flg15 125 μM, JA 2.5 mM, ASM 300 mg/L; ΔΔCt relative to actin; above 2 = overexpression
Description: Seeds of tomato cv. Rio Grande plants were sown in hydroponic seed plugs (rockwool), germinated and grown under controlled greenhouse conditions (25 ± 2°C, 16 h light / 15 ± 2°C, 8 h dark, and 60% RH). Two-week old seedlings (two cotyledons) were transplanted into rockwool plugs (7.5×7.5×6.5 cm, Grodan Iberica). The experimental design consisted of three replicates of three plants per treatment. After two weeks, tomato leaves were sprayed with aqueous solutions of BP100, 9 selected derivatives and flg15 at 125 μM, jasmonic acid at 2.5 mM (Sigma-Aldrich, Sant Louis, Missouri, UE), and acybenzolar-S-methyl at 300 mg/L (Syngenta, Basel, Switzerland), until the run-off point. Water-sprayed plants were used as not treated controls. Twenty-four hours after product application leaf samples were collected and processed to extract RNA for RT-qPCR assays. Plant material was ground to a fine powder in liquid nitrogen with the Tissuelyzer II system (Qiagen). Total RNA was extracted from leaves using PureLink Plant RNA Reagent (Invitrogen, Life Technologies) according to the manufacturer’s manual. The RNA was solubilized in RNAse free water and was routinely subjected to DNAse treatment (Ambion® Turbo DNA-free™, Life Technologies) to remove any contaminant DNA. In each step, the RNA was quantified using a Nanodrop N-2000 spectrophotometer, and its integrity verified by denaturing agarose gel electrophoresis. First-strand of complementary DNA (cDNA) was generated from leave RNA using reverse transcriptase (High Capacity cDNA Reverse Transcription Kit, Invitrogen) according to the manufacturer’s manual.
To test gene defense induction in the treated tomato plants, a qPCR assay was performed. Quantitative PCR was carried out in a fluorometric thermal cycler (qPCR Quant Studio 5, Applied Biosystems) by using a Mix SYBR®Green PCR Master Mix (Applied Biosystems). The total reaction volume of this PCR reaction was 20 μL and the reaction mixture was 1 μL of each primer set at the adequate concentration, 10 μL of MixSyber Green, 6 μL of distilled water and 2 μL of cDNA. Melting curve analysis was performed after amplification to verify amplification specificity. A constitutive gene (actin gene) was used as reference control, and the following genes implicated in plant defense response were analyzed: Pathogenesis-related protein-1 (PR1), Harpin (Harp), Polyphenol oxidase (PPO), Subtilisin-like protease (Sub1), Blue copper binding-protein (BCB), Osmotin (Osm2), Acidic β-1,3 endoglucanase (GluA), Lypoxigenase (LOX), Protein inhibitor II (PinII), Dehydrin (Tas14) and Ethylene response transcription factor (ERT3). […] For each gene system, the concentration of the primer pair was optimized. The primer concentration was 100 nM for all the genes except for the GluA, Harp, PR1 and actin genes which optimized concentration was 300 nM. A calibration curve was prepared by cloning the corresponding DNA in the pSpark cloning vector (Canvax, Córdoba, Spain) according to the manufacturer instructions, which was then used to transform E. coli DH5α by standard procedures. The number of plasmid copies were quantified after purification from E. coli (QIAGEN Iberia, S. L., Madrid, Spain), and appropriate dilutions were prepared to obtain the standard curve. […] Relative quantification of gene expression was done using the ΔΔCt method. Each biological repetition treatment was analyzed in duplicate. The mean of the Ct values obtained were used to estimate the fold change value of the endogenous reference gene (actin) and the target plant defense genes.

Row | Compound | MIC [1] [µM] | MIC [2] [µM] | MIC [3] [µM] | MIC [4] [µM] | MIC [5] [µM] | MIC [6] [µM] | MIC [7] [µM] | MIC [8] [µM] | BCB gene expression, fold induction [9] | ERT3 gene expression, fold induction [9] | GluA gene expression, fold induction [9] | Harp gene expression, fold induction [9] | LOX gene expression, fold induction [9] | Osm2 gene expression, fold induction [9] | PPO gene expression, fold induction [9] | PR1 gene expression, fold induction [9] | PinII gene expression, fold induction [9] | Sub1 gene expression, fold induction [9] | Tas14 gene expression, fold induction [9]
1 | CCCC(=O)NCCCC[C@H](NC(=O)[C@H](CC(C)C)NC(=O)[C@@H](NC(=O)[C@H](CCCCN)NC(=O)[C@H](CCCCN)NC(=O)[C@H](Cc1ccccc1)NC(=O)[C@H](CC(C)C)NC(=O)[C@H](CCCCN)NC(=O)[C@H](CCCCN)NC(C)=O)[C@@H](C)CC)C(=O)N[C@@H](Cc1ccc(O)cc1)C(=O)N[C@@H](CC(C)C)C(N)=O [BP388, Ac-KKLFKKILK(COC3H7)YL-NH2] | 6.2 to 12.5 | 0.8 to 1.6 | 6.2 to 12.5 | 3.1 to 6.2 | 3.1 to 6.2 | 1.6 to 3.1 | 6.2 to 12.5 | 1.6 to 3.1 |  |  |  |  |  |  |  |  |  |  | 
2 | CCCCCC(=O)NCCCC[C@H](NC(=O)[C@H](Cc1ccccc1)NC(=O)[C@H](CC(C)C)NC(=O)[C@H](CCCCN)NC(=O)[C@H](CCCCN)NC(C)=O)C(=O)N[C@@H](CCCCN)C(=O)N[C@H](C(=O)N[C@@H](CC(C)C)C(=O)N[C@@H](CCCCN)C(=O)N[C@@H](Cc1ccc(O)cc1)C(=O)N[C@@H](CC(C)C)C(N)=O)[C@@H](C)CC [BP372, Ac-KKLFK(COC5H11)KILKYL-NH2] | 6.2 to 12.5 | 0.8 to 1.6 | 6.2 to 12.5 | 6.2 to 12.5 | 3.1 to 6.2 | 6.2 to 12.5 | 6.2 to 12.5 | 3.1 to 6.2 |  |  |  |  |  |  |  |  |  |  | 
3 | CCCCCCCCCCCC(=O)NCCCC[C@H](NC(=O)[C@H](CCCCN)NC(C)=O)C(=O)N[C@@H](CC(C)C)C(=O)N[C@@H](Cc1ccccc1)C(=O)N[C@@H](CCCCN)C(=O)N[C@@H](CCCCN)C(=O)N[C@H](C(=O)N[C@@H](CC(C)C)C(=O)N[C@@H](CCCCN)C(=O)N[C@@H](Cc1ccc(O)cc1)C(=O)N[C@@H](CC(C)C)C(N)=O)[C@@H](C)CC [BP393, Ac-KK(COC11H23)LFKKILKYL-NH2] | >25 | 1.6 to 3.1 | 12.5 to 25 | 12.5 to 25 | 3.1 to 6.2 | 3.1 to 6.2 | 6.2 to 12.5 | 3.1 to 6.2 |  |  |  |  |  |  |  |  |  |  | 
4 | CSC(=O)c1cccc2nnsc12 [ASM, acybenzolar-S-methyl, reference compound] |  |  |  |  |  |  |  |  | 12.1 | 2.9 | 5.9 | 6.3 | 3.3 | 8.7 | 2.9 | 4.8 | 0.5 | 11.6 | 10.7
5 | CCCC(=O)NCCCC[C@H](NC(=O)[C@H](CCCCN)NC(=O)[C@H](CCCCN)NC(=O)[C@H](Cc1ccccc1)NC(=O)[C@H](CC(C)C)NC(=O)[C@H](CCCCN)NC(=O)[C@H](CCCCN)NC(C)=O)C(=O)N[C@@H](CC(C)C)C(=O)N[C@@H](CCCCN)C(=O)N[C@@H](Cc1ccc(O)cc1)C(=O)N[C@@H](CC(C)C)C(N)=O [BP386, Ac-KKLFKKK(COC3H7)LKYL-NH2] | >25 | 12.5 to 25 |  | 12.5 to 25 | 12.5 to 25 | 12.5 to 25 | 6.2 to 12.5 | 12.5 to 25 |  |  |  |  |  |  |  |  |  |  | 
6 | CC/C=C\C[C@H]1C(=O)CC[C@@H]1CC(=O)O [JA, jasmonic acid, reference compound] |  |  |  |  |  |  |  |  | 6.6 | 41.3 | 0.2 | 1.9 | 9.7 | 48.4 | >50 | 2.9 | >50 | 3.9 | 0.88
